{"source": "patent US12246026B2", "about": "“Ganaxolone for use in treatment of status epilepticus” (Marinus Pharmaceuticals, Inc., priority 2019, dated 2025)", "origin": "cited, not measured here", "system": "patients with super refractory SE", "conditions": "randomized, double-blind, placebo-controlled Phase 3 trial; cited from earlier work"}
{"smiles": "CC(=O)[C@H]1CC[C@H]2[C@@H]3CC[C@H]4C[C@H](O)CC[C@]4(C)[C@H]3CC[C@]12C", "note": "[brexanolone]", "values": [{"measurement": "efficacy over placebo", "value": "failed to show efficacy over placebo"}]}
